Assay results published in patent publication US20150329558A1, “FUSED HETEROCYCLIC COMPOUNDS AS ION CHANNEL MODULATORS” (Gilead Sciences, Inc., priority 2011, published 2015).
Read-outs that look alike come from different tables or passages of the source.

Key:
[1] = biological target: wild-type human cardiac sodium channel, hNav1.5 (late INa) (Homo sapiens, UniProt Q14524); experiment: Late INa screening assay (QPatch whole cell patch clamp); format: cell-based
In short: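 HEK293 cells stably expressing hNav1.5 alpha subunit without beta subunits, QPatch automated whole-cell clamp at 23-25° C, CsF-based internal solution pH 7.4. Late INa induced by 10 μM tefluthrin; 250 ms steps to −20 mV from −120 mV at 0.1 Hz, compounds at 1 μM. Percent block of mean current 225–250 ms into the step.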

hERG potassium channel = hERG potassium channel (Homo sapiens, UniProt Q12809); experiment: hERG screening assay (PatchXpress, CHO cells); format: cell-based; conditions: % inhibition at 1 μM
Description: Compounds were also tested for their effect to block the hERG K^+ channel.
Compounds were screened to test their activity in blocking the hERG potassium channel at AVIVA Biosciences (San Deigo, Calif., USA). The hERG channel is heterologously expressed in a CHO (Chinese Hamster Ovary) cell line. Cells were maintained with standard tissue culture procedures and stable channel expression was maintained with 500 μg/mL G418 in the culture medium. Cells were harvested for testing on the PatchXpress 7000A automated patch clamp with Accumax (Innovative Cell Technologies, San Diego, Calif.) to isolate single cells.
The following solutions were used for electrophysiological recordings. The external solution contained: 2 mM CaCl2; 2 mM MgCl2; 4 mM KCl; 150 mM NaCl; 10 mM Glucose; 10 mM HEPES (pH 7.4 with 1M NaOH; osmolarity, ˜310 mOsm). The internal solution contained: 140 mM KCl, 10 mM MgCl2, 6 mM EGTA, 5 mM HEPES, 5 mM ATP (pH adjusted to 7.25 with KOH; osmolarity, ˜295 mOsm).
hERG channels were activated when the voltage was first stepped to −50 mV for 300 ms from the −80 mV holding potential and then stepped to +20 mV for 5 seconds. At +20 mV the channels open and then largely inactivate, so the currents are relatively small. Upon returning to −50 mV from +20 mV, hERG currents transiently become much larger as inactivation is rapidly removed and then the channel closes. The first step to −50 mV for 300 ms was used as a baseline for measuring the peak amplitude during the step to −50 mV after channel activation. The peak tail current at −50 mV was measured both under control conditions and after addition of compound, each cell serving as its own control.
All compounds were prepared as 10 mM DMSO stocks in glass vials. Stock solutions were mixed by vigorous vortexing and sonication for about 2 minutes at room temperature. For testing, compounds were diluted in glass vials using an intermediate dilution step in pure DMSO and then further diluted to working concentrations in external solution. Dilutions were prepared no longer than 20 minutes before use.
For the electrophysiological recordings, after achieving the whole-cell configuration, cells were monitored for 90 seconds to assess stability and washed with external solution for 66 seconds. The voltage protocol described above was then applied to the cells every 12 seconds and throughout the whole procedure. Only cells with stable recording parameters and meeting specified health criteria were allowed to enter the compound addition procedure.
External solution containing 0.1% DMSO (vehicle) was applied to the cells first to establish the control peak current amplitude. After allowing the current to stabilize for 3 to 5 minutes, 1 μM and then 10 μM test compounds were applied. Each compound concentration was added 4 times and cells were kept in test solution until the effect of the compound reached steady state or for a maximum of 12 minutes. After addition of test compound, a positive control (1 μM Cisapride) was added and must block >95% of the current for the experiment to be considered valid. Washout in the external solution compartment was performed until the recovery of the current reached steady state.

[2] = Microsomal stability assay, human; format: in vitro ADME; conditions: metabolic stability, human liver microsomes 0.5 mg/mL, substrate 3 uM
In short: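 Liver microsomes at 0.5 mg/mL protein in 100 mM KPO4 buffer, incubated with 3 uM compound and NADPH-regenerating system, run in duplicate. Samples taken at 2, 12, 25, 45 and 65 min and quenched in MeOH/ACN/water before analysis.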

[3] = % inhibition at 1 μM, read-out: NAv1.5*-LATE-
[4] = percent block of late INa, compound at 1 μM, 10 μM Tefluthrin, HEK293 hNav1.5, read-out: Late INa 1 μM

hERG potassium channel, sequence (Q12809 whole entry): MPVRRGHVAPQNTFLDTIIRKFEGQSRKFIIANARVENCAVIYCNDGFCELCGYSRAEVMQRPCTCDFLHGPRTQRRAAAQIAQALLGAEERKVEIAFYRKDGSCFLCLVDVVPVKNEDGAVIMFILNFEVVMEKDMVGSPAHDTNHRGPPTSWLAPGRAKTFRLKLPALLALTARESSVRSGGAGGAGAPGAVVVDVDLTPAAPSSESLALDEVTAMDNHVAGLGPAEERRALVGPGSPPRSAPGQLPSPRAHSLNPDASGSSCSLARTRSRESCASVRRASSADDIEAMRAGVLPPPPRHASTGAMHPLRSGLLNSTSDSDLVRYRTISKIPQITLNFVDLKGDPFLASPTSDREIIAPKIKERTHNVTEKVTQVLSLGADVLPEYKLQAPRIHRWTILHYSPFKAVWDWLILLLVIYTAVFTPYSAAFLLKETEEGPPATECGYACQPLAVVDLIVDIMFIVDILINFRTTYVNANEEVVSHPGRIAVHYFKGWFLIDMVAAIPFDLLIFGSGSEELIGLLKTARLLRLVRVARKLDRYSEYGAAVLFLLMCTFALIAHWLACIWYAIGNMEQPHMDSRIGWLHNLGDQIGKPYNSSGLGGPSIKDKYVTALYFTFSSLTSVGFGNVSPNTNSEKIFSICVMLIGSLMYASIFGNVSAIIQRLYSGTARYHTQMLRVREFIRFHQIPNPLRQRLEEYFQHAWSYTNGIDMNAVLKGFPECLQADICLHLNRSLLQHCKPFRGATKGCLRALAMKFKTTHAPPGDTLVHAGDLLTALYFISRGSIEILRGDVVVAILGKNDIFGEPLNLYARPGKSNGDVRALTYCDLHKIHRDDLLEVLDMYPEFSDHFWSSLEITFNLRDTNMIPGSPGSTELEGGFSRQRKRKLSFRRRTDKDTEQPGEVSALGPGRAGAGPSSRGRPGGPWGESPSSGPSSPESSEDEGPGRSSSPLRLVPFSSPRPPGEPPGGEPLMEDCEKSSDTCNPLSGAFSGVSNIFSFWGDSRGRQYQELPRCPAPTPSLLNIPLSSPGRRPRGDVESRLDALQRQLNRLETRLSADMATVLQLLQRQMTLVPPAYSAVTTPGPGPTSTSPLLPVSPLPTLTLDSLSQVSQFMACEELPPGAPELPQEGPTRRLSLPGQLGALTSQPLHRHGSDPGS
wild-type human cardiac sodium channel, hNav1.5 (late INa), sequence (Q14524 whole entry): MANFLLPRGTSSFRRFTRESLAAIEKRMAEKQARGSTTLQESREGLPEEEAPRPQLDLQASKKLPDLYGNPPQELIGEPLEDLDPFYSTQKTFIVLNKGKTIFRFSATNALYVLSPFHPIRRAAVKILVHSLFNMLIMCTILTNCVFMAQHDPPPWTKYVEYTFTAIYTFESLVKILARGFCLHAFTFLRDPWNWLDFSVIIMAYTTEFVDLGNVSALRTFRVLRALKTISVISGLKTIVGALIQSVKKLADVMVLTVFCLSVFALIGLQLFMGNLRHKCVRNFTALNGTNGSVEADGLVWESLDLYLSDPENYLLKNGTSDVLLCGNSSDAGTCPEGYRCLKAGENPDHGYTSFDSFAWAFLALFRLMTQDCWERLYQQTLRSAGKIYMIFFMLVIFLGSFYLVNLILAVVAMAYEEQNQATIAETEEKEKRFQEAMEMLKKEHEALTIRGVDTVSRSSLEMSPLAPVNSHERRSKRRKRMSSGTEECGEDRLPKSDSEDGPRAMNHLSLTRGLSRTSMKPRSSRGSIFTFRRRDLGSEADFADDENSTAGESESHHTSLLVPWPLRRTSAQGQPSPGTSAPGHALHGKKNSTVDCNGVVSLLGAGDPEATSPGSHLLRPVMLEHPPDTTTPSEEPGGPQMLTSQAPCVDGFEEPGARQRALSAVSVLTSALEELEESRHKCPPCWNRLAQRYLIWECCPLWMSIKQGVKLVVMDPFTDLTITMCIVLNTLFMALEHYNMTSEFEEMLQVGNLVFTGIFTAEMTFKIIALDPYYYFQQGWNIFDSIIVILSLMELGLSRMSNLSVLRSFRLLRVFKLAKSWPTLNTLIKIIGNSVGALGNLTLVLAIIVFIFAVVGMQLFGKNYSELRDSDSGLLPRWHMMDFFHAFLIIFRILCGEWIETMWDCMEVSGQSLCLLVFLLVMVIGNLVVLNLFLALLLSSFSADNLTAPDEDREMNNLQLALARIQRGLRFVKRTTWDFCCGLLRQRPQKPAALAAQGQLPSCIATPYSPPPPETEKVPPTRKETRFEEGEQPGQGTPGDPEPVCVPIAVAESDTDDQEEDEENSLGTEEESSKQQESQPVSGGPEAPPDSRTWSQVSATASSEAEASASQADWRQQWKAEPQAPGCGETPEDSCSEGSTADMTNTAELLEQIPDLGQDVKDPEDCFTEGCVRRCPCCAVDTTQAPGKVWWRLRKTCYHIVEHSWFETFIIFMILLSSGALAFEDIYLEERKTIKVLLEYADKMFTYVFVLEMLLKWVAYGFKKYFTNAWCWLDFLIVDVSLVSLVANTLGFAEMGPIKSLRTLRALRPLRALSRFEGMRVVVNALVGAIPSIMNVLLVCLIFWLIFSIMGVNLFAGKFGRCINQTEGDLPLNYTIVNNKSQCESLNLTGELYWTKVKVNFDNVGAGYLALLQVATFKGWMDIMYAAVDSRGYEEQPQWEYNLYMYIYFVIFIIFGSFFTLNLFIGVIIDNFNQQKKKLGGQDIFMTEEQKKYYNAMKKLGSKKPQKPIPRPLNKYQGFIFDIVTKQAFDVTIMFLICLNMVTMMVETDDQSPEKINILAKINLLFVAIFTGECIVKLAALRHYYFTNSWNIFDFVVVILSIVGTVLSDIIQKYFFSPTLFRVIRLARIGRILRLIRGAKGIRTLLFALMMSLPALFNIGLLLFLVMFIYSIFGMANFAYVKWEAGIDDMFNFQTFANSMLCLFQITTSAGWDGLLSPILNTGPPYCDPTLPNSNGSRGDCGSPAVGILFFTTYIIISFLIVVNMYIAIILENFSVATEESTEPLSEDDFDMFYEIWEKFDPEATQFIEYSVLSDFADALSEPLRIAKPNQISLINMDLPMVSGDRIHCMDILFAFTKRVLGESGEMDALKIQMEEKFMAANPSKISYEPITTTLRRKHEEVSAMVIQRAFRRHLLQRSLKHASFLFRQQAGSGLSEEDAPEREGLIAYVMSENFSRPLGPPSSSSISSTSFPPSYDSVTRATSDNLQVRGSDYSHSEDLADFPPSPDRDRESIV

Row | Compound | inhibition at 1 µM [1, 3] | inhibition at 1 µM [1, 4] | HERG* (hERG potassium channel) | MS Human THalf [2]
1 | Cc1ncc(Cn2nnc3ccc(-c4ccc(OC(F)(F)F)cc4)cc3c2=O)o1 [II-95, 3-((2-methyloxazol-5-yl)methyl)-6-(4-(trifluoromethoxy)phenyl)benzo[d][1,2,3]triazin-4(3H)-one] | 36% | 36% | <10% | 280 min
2 | O=c1c2cc(-c3ccc(OC(F)(F)F)cc3)ccc2nnn1Cc1nnc(C2CC2)o1 [II-67, 3-((5-cyclopropyl-1,3,4-oxadiazol-2-yl)methyl)-6-(4-(trifluoromethoxy)phenyl)benzo[d][1,2,3]triazin-4(3H)-one] | 47% | 47% | 41% | > 395 min
3 | O=c1c2cc(-c3ccc(OC(F)(F)F)cc3)ccc2nnn1Cc1noc(C2CC2)n1 [II-14, 3-((5-cyclopropyl-1,2,4-oxadiazol-3-yl)methyl)-6-(4-(trifluoromethoxy)phenyl)benzo[d][1,2,3]triazin-4(3H)-one] | 68% | 68% | <10% | 236 min
4 | N#Cc1ccnc(OCCn2nnc3ccc(-c4ccc(OC(F)(F)F)cc4)cc3c2=O)n1 [II-36, 2-(2-(4-oxo-6-(4-(trifluoromethoxy)phenyl)benzo[d][1,2,3]triazin-3(4H)-yl)ethoxy)pyrimidine-4-carbonitrile] | 43% | 43% | 21% | 157 min
5 | Cc1noc(Cn2cnc3ccc(-c4ccc(OC(F)(F)F)cc4)cc3c2=O)n1 [IV-6, 3-((3-methyl-1,2,4-oxadiazol-5-yl)methyl)-6-(4-(trifluoromethoxy)phenyl)quinazolin-4(3H)-one] | 49% | 49% | <10% | 280 min
